Key:
[1] = tested on: 8B10 scFv Rip-3 (anti-MPTS); assay: MPTS fluorescence quenching, protein titration; assay type: binding
[2] = tested on: 4D5Flu Rip-3 (anti-fluorescein scFv); assay: dose-dependent rescue of fluorescein quenching; assay type: binding, synthetic construct

EC50 [1] [µM]	EC50 [2] [µM]	SMILES
1		COc1cc(S(=O)(=O)O)c2ccc3c(S(=O)(=O)O)cc(S(=O)(=O)O)c4ccc1c2c43 [MPTS, 8-methoxypyrene-1,3,6-trisulfonic acid]
	16	c1ccc(COc2ccc3cn[nH]c3c2)cc1 [Stitch-3, 6-(benzyloxy)indazole]

Reference: PMC7099597 (ACS Central Science, 2020)
